From patent US7968601B2, “Adamantyl acetamides as 11-β hydroxysteroid dehydrogenase inhibitors” (Janssen Pharmaceutica N.V., priority 2002, dated 2011)

Legend:
[1] = molecular target: T1, 11b-HSD1 (Mus musculus, UniProt P50172); test: Cellular assay, 11b-HSD1 activity in differentiated 3T3-L1 cells; format: cell-based; details: 4 hour pre-incubation, pIC50 scored 1-3, read-out: [C2] HSD1 cellular 3T3-L1 Score
T1 construct: endogenous in cells; host or cells: 3T3-L1 (ATCC-CL-173), differentiated into adipocytes
Description: The effects on 11b-HSD1 activity was measured in differentiated 3T3-L1 cells and rat hepatocytes.
Mouse fibroblast 3T3-L1 cells (ATCC-CL-173) were seeded at a density of 16500 cells/ml in 12 well plates and grown for 7 days in DMEM medium (supplemented with 10% heat inactivated foetal calf serum, 2 mM glutamine and 25 mg gentamycin) at 37 C in a humidified 5% CO2 atmosphere. Medium was refreshed twice a week. Fibroblasts were differentiated into adipocytes at 37 C in a 5% CO2 humidified atmosphere in growth medium containing 2 μg/ml insulin, 55 μg/ml IBMX and 39.2 μg/ml dexamethasone.
Following a 4 hour pre-incubation with test compound, 0.5 μCi ^3H-cortisone or dehydrocorticosterone, was added to the cultures. One hour later, the medium was extracted on Extrelut^3-columns with 15 ml diethyl ether and the extract was analysed by HPLC as described above.
(§1) As for the enzymatic assays, the compounds to be tested were taken from a stock solution and tested at a final concentration ranging from […] to 3.10^−9M. From the thus obtained dose response curves, the pIC50 value was calculated and scored as follows; Score 1=pIC50 value<5, Score 2=pIC50 value in the range of 5 to 6, Score 3=pIC50 value>6. (in this table NT stands for Not Tested).

[2] = molecular target: T2, 11b-HSD2 (Homo sapiens, UniProt P80365); test: Cellular assay, 11b-HSD2 activity in HepG2 cells; format: cell-based; parameters: endogenous in cells; host or cells: HepG2 (ATCC HB-8065); details: 4 hour pre-incubation, pIC50 scored 1-3, read-out: [C2] HSD2 cellular HepG2 Score
T2 sequence (P80365 1-405): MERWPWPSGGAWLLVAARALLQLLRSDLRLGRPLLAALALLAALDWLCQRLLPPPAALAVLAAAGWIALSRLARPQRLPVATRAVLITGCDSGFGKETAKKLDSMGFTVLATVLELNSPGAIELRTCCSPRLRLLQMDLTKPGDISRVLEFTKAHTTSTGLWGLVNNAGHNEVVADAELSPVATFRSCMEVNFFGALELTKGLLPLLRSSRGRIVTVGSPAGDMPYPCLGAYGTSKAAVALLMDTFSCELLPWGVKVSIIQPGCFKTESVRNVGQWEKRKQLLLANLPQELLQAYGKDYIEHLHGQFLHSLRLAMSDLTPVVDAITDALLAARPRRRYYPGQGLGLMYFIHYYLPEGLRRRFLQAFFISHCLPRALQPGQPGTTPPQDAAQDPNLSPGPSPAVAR
Description: The effects on 11b-HSD2 activity was studied in HepG2 and LCC-PK1-cells HepG2-cells (ATCC HB-8065) were seeded in 12 well plates at a density of 100,000 cells/ml and grown at 37 C in a humidified 5% CO2 atmosphere in MEM-Rega-3 medium supplemented with 10% heat inactivated foetal calf serum, 2 mM L-glutamine and sodium bicarbonate). Medium was refreshed twice a week. Pig kidney cells (LCC-PK1, ATCC CRL-1392) were seeded at a density of 150,000 cells/ml in 12 well plates and grown at 37 C in a humidified 5% CO2 atmosphere in Medium 199 supplemented with Earls modified salt solution, 100 U/ml penicillin, 100 μg/ml streptomycin and 10% foetal calf serum. Medium was refreshed twice a week. Twenty four hours prior to the onset of the experiment, medium was changed by medium containing 10% charcoal stripped foetal calf serum.
Following a 4 hour pre-incubation with test compound, 0.5 μCi ^3H-cortisol or corticosterone, was added to the cultures. One hour later, the medium was extracted on Extrelut^3-columns with 15 ml diethyl ether and the extract was analysed by HPLC as described above.
as §1

[3] = molecular target: 11b-HSD1 (Homo sapiens, UniProt P28845); test: Enzymatic assay, 11b-HSD1 reductase activity (conversion of cortisone into cortisol); format: biochemical; details: pIC50 scored 1-3, read-out: [C1] HSD1-prot Reduct Score
Description: The effects of compounds on 11b-HSD1 dependent conversion of cortisone into cortisol (reductase activity) was studied in a reaction mixture containing 30 mM Tris-HCl buffer pH 7.2, 180 μM NADPH, 1 mM EDTA, 2 μM cortisone, 1 μl drug and/or solvent and 11 μg recombinant protein in a final volume of 100 μl.
(§2) All incubations were performed for 45 min at 37 C in a water bath. The reaction was stopped by adding 100 μl acetonitrile containing 20 μg corticosterone as internal standard. After centrifugation, the product formation was analysed in the supernatant by HPLC on a Hypersyl BDS-C18 column using 0.05 mM ammonium acetate/methanol (50/50) as solvent. In all of the aforementioned assays, the drugs to be tested were taken from a stock solution and tested at a final concentration ranging from […] to 3.10^−9M. From the thus obtained dose response curves, the pIC50 value was calculated and scored as follows; Score 1=pIC50 value<5, Score 2=pIC50 value in the range of 5 to 6, Score 3=pIC50 value>6. (in this table NT stands for Not Tested).

[4] = molecular target: T2, 11b-HSD2; test: Enzymatic assay, 11b-HSD2 dependent dehydrogenase activity; format: biochemical; details: 11b-HSD2 dehydrogenase activity, pIC50 scored 1-3, read-out: [C1] HSD2 prot Dehydro Score
Description: The effects on the 11b-HSD2 dependent dehydrogenase activity was studied in a reaction mixture containing 0.1M sodium phosphate buffer pH 7.5, 300 μM NAD, 100 nM cortisol (of which 2 nM is 3H-radio labelled), 1 μl drug and/or solvent and 2.5 μg recombinant protein in a final volume of 100 μl.
as §2

11b-HSD1 (Homo sapiens, UniProt P28845), sequence (P28845 whole entry): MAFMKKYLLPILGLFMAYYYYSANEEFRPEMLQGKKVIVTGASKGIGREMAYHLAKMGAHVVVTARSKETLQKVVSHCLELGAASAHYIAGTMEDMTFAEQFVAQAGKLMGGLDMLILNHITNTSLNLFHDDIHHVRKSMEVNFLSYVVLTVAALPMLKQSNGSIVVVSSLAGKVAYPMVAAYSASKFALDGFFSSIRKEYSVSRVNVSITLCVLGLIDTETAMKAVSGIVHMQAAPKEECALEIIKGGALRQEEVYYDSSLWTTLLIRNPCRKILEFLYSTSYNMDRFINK
T1 sequence (P50172 whole entry): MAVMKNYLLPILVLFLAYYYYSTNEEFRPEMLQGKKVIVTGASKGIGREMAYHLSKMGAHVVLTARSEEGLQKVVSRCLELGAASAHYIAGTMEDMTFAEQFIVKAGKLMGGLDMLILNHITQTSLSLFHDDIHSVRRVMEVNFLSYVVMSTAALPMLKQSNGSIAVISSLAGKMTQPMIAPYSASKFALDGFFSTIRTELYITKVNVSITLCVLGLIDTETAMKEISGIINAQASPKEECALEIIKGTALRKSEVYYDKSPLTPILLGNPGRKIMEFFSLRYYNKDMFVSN

IC50 [1] | IC50 [2] | IC50 [3] | IC50 [4] | SMILES
< 1000 nM | > 10 µM | 1000 to 10000 nM | > 10 µM | CC(=CC(=O)NC1C2CC3CC(C2)CC1C3)c1ccccc1 (stereo not drawn) [Compound 153]
< 1000 nM | > 10 µM | > 10000 nM | > 10 µM | CC(C)(C(=O)NC1CCCCCCC1)c1ccccc1 [Compound 46]
< 1000 nM | > 10 µM | > 10000 nM | > 10 µM | COc1cc(C)cc(C(C)(C)C(=O)N[C@H]2[C@@H]3CC4C[C@H]2C[C@](F)(C4)C3)c1 [Compound 263]
< 1000 nM | > 10 µM | < 1000 nM | > 10 µM | Cc1cccc(C(C)(C)C(=O)NC2C3CC4CC(C3)CC2C4)c1 (stereo not drawn) [Compound 89]
< 1000 nM | > 10 µM | > 10000 nM | > 10 µM | O=C(NC1C2CC3CC(C2)CC1C3)C1(c2ccncc2)CCCC1 (stereo not drawn) [Compound 127]
< 1000 nM | > 10 µM | > 10000 nM | > 10 µM | CC(C)(C(=O)NC1C2CC3CC(C2)CC1C3)c1cccc(F)c1 (stereo not drawn) [Compound 84]
< 1000 nM | > 10 µM | < 1000 nM | > 10 µM | O=C(NC1C2CC3CC(C2)CC1C3)C1CCCCc2ccccc21 (stereo not drawn) [Compound 169]
< 1000 nM | > 10 µM | < 1000 nM | > 10 µM | CC1CCC(C(=O)NC2C3CC4CC(C3)CC2C4)c2ccccc21 (stereo not drawn) [Compound 236]
< 1000 nM | > 10 µM | > 10000 nM | > 10 µM | CC(C)(C(=O)NC1C2CCCC1CCC2)c1ccccc1 (stereo not drawn) [Compound 48]
< 1000 nM | > 10 µM | < 1000 nM | > 10 µM | CC(C)(C(=O)NC1C2CC3CC(C2)CC1C3)c1cccc(CCC(=O)O)c1 (stereo not drawn) [Compound 196]
1000 to 10000 nM | > 10 µM | < 1000 nM | > 10 µM | COC(C(=O)NC1C2CC3CC(C2)CC1C3)c1ccccc1 (stereo not drawn) [Compound 43]
< 1000 nM | > 10 µM | < 1000 nM | > 10 µM | CC(C)(C(=O)NC1C2CC3CC(C2)CC1C3)c1cccc(O)c1 (stereo not drawn) [Compound 5]
< 1000 nM | > 10 µM | > 10000 nM | > 10 µM | CC(C)(C(=O)NC1C2CC3CC(C2)CC1C3)c1ccc2ccccc2c1 (stereo not drawn) [Compound 138]
< 1000 nM | > 10 µM | > 10000 nM | > 10 µM | Cc1cc(C)c2c(c1)C(C(=O)NC1C3CC4CC(C3)CC1C4)=CCC2 (stereo not drawn) [Compound 181]
< 1000 nM | > 10 µM | < 1000 nM | > 10 µM | O=C(O)CCc1cccc2c1CCCC2C(=O)N[C@H]1[C@@H]2CC3C[C@H]1C[C@](F)(C3)C2 (stereo partly drawn) [Compound 258]
< 1000 nM | > 10 µM | < 1000 nM | > 10 µM | Cc1cc(CCC(=O)N2CCOCC2)cc(C(C)(C)C(=O)N[C@H]2[C@@H]3CC4C[C@H]2C[C@](F)(C4)C3)c1 [Compound 251]
< 1000 nM | > 10 µM | > 10000 nM | > 10 µM | Cc1cc(CCC(=O)O)cc(C(C)(C)C(=O)N[C@H]2[C@@H]3CC4C[C@H]2C[C@](F)(C4)C3)c1 [Compound 254]

IC50 [1] | IC50 [2] | IC50 [3] | IC50 [4] | SMILES
< 1000 nM | > 10 µM | < 1000 nM | > 10 µM | O=C(NC1C2CC3CC(C2)CC1C3)C1=CCOc2ccccc21 (stereo not drawn) [Compound 162]
< 1000 nM | > 10 µM | 1000 to 10000 nM | > 10 µM | CC(C)(C(=O)NC1C2CC3CC(C2)CC1C3)c1cccc(OCC(=O)O)c1 (stereo not drawn) [Compound 6]
< 1000 nM | > 10 µM | > 10000 nM | > 10 µM | CC(C)(C(=O)NC1C2CC3CC(C2)CC1C3)c1cccc(/C=C/C(=O)OCc2ccccc2)c1 (stereo not drawn) [Compound 198]
< 1000 nM | > 10 µM | < 1000 nM | > 10 µM | CC(C)(C(=O)NC1C2CC3CC(C2)CC1C3)c1cccnc1 (stereo not drawn) [Compound 128]
< 1000 nM | > 10 µM | < 1000 nM | > 10 µM | CCOC(=O)CCc1cccc(C(C)(C)C(=O)NC2C3CC4CC(C3)CC2C4)c1 (stereo not drawn) [Compound 193]
< 1000 nM | > 10 µM | > 10000 nM | > 10 µM | CCCOc1cccc(C(C)(C)C(=O)NC2C3CC4CC(C3)CC2C4)c1 (stereo not drawn) [Compound 53]
< 1000 nM | > 10 µM | < 1000 nM | > 10 µM | COc1cccc2c1OCC=C2C(=O)NC1C2CC3CC(C2)CC1C3 (stereo not drawn) [Compound 171]
< 1000 nM | > 10 µM | 1000 to 10000 nM | > 10 µM | CC(=Cc1ccccc1)C(=O)NC1C2CC3CC(C2)CC1C3 (stereo not drawn) [Compound 151]
< 1000 nM | > 10 µM | > 10000 nM | > 10 µM | CC(C)(C(=O)N[C@H]1[C@@H]2CC3C[C@H]1C[C@](O)(C3)C2)c1cccc(OCCN2CCOCC2)c1 [Compound 158]
< 1000 nM | > 10 µM | < 1000 nM | > 10 µM | COc1cccc(C(C)(C)C(=O)NC2CCC3CCCC2C3)c1 (stereo not drawn) [Compound 74]
< 1000 nM | > 10 µM | > 10000 nM | > 10 µM | O=C(NC1C2CC3CC(C2)CC1C3)C1CCc2ccccc21 (stereo not drawn) [Compound 197]
< 1000 nM | > 10 µM | < 1000 nM | > 10 µM | O=C(N[C@H]1[C@@H]2CC3C[C@H]1C[C@](O)(C3)C2)C1CCc2ccccc2C1 (stereo partly drawn) [Compound 243]
< 1000 nM | > 10 µM | > 10000 nM | > 10 µM | CC(C)(C(=O)NC1C2CC3CC(C2)CC1C3)c1cccc(C(F)(F)F)c1 (stereo not drawn) [Compound 85]
< 1000 nM | > 10 µM | 1000 to 10000 nM | > 10 µM | CC(C)(C(=O)N[C@H]1[C@@H]2CC3C[C@H]1C[C@](F)(C3)C2)c1cccc(CCC(=O)O)c1 [Compound 217]
< 1000 nM | > 10 µM | < 1000 nM | > 10 µM | CN(C)CCCOc1cccc(C(C)(C)C(=O)NC2C3CC4CC(C3)CC2C4)c1 (stereo not drawn) [Compound 92]
< 1000 nM | > 10 µM | > 10000 nM | > 10 µM | CC(C)(C(=O)NC1C2CC3CC(C2)CC1C3)c1ccc(F)cc1F (stereo not drawn) [Compound 87]
